Data from patent US6403656B1, “Use of ppar-γ activators in dermatology” (Galderma Research & Development S.N.C, priority 1997, dated 2002).

Assays:
PPARα = target: T1, PPARα (Homo sapiens, UniProt Q07869); test: Transactivation test (luciferase reporter, cotransfected HeLa cells) via PPARα; settings: read-out: AC50 (nM) − PPARα; HeLa cells cotransfected with receptor expression vector and PPRE-luciferase reporter, treated for 24 hours
T1 sequence (Q07869 1-468): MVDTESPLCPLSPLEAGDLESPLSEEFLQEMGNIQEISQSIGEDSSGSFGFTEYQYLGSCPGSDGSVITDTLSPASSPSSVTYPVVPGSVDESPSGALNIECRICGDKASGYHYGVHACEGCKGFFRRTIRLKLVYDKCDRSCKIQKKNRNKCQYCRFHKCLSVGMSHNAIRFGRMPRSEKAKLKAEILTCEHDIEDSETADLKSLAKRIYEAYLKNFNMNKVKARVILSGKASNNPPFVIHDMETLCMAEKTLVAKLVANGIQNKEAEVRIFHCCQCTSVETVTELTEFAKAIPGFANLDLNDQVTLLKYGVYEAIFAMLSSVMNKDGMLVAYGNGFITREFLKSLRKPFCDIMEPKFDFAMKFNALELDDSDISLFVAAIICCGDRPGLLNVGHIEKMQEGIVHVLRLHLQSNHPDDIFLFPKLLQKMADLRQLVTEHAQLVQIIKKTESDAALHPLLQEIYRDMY

keratinocytes = test: Determination of the keratinocyte proliferation (BrdU incorporation); settings: statement in words
PPARγ = target: T2, PPARγ (Homo sapiens, UniProt P37231); test: Transactivation test (luciferase reporter, cotransfected HeLa cells) via PPARγ
T2 sequence (P37231 1-505): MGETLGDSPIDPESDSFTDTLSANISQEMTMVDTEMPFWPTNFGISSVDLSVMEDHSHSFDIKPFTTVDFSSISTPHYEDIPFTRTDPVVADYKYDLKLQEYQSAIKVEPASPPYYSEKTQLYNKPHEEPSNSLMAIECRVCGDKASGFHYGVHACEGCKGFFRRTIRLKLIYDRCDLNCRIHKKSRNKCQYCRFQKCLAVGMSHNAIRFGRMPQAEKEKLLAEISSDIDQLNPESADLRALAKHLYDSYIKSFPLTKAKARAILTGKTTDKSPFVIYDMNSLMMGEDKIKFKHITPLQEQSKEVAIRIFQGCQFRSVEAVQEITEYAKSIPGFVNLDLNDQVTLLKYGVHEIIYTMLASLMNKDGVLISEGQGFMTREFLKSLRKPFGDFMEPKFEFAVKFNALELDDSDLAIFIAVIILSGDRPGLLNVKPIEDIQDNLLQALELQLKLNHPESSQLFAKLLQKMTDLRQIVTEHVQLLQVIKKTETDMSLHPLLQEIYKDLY

For `CCOC(Cc1ccc(OCCN(C)c2nc3ccccc3o2)cc1)C(=O)O` (single isomer, unassigned; (+)) [Compound C, (+)-3-{4-[2-(benzoxazol-2-ylmethylamino)-ethoxy]phenyl}-2-ethyoxypropionic acid], the AC50 (PPARα) was 4600 nM.
`CCOC(Cc1ccc(OCCN(C)c2nc3ccccc3o2)cc1)C(=O)O` (single isomer, unassigned; (-)) [Compound D, (−)-3-{4-[2-(benzooxazol-2-ylmethylamino)-ethoxy]phenyl}-2-ethyoxypropionic acid] gave an AC50 (PPARα) of 1450 nM.
In the case of `CN(CCOc1ccc(CC2SC(=O)NC2=O)cc1)c1ccccn1` (stereo not shown) [Compound A, 5-{4-[2-(methylpyrid-2-ylamino)-ethoxy]benzyl}thiazolidine-2,4-dione], the “inhibitory activity on the proliferation of keratinocytes” value (keratinocytes) was “weak, or even no inhibitory activity”.
In the case of `CCCCC/C=C/C=C1/C(=O)C=CC1C/C=C\CCCC(=O)O` (stereo not shown) [Compound E, 15-deoxy-Δ^12,14-prostaglandin J2(15-d PGJ2)], the “inhibitory activity on the proliferation of keratinocytes” value (keratinocytes) was “weak, or even no inhibitory activity”, the “R1 (ratio of AC50 relative to PPAR-γ over AC50 relative to PPARα)” value (PPARγ; AC50 PPARγ / AC50 PPARα) was 0.082 and the AC50 (PPARγ; read-out: AC50 (nM) − PPARγ, HeLa cells cotransfected with receptor expression vector and PPRE-luciferase reporter, treated for 24 hours) was 180 nM. The AC50 (PPARα) was 2200 nM.
